# Earlier results, collected in patent US8298992B2, “Low odor, low volatility solvent for agricultural chemicals” (Huntsman Petrochemical LLC, priority 2006, dated 2012).
# Details: solubility data available for a dimethyamide (comparison)
compound,measurement,value
"CCCCCCCCCC(=O)N(C)C [N,N-dimethyldecanamide]",Solubility in Water (wt %),3.8% wt %
